US10441566B2, “Use of butylidenephthalide” (EVERFRONT BIOTECH INC., priority 2016, dated 2019)

What was measured:
Format in all cases: cell-based
[1] = test system: fibrotic buccal mucosal fibroblasts (fBMFs); test: Transwell cell migration assay; conditions: BP 0, 25, or 50 μg/mL, 24 hours migration, FIGS. 3A and 3B
Description: In this experiment, a transwell cell migration assay system (Transwell® system; purchased from Corning company, UK) and a polycarbonate membrane with a pore size of 8 μm (purchased from Corning company, UK) were used to further investigate whether butylidenephthalide (BP) can inhibit the abilities of oral submucosal tissue cells to crawl and invade.
First, the cell medium containing 10% FBS (fetal bovine serum) was added into the lower chamber, and an apparatus of polycarbonate membrane was placed on the bottom of a cell culture plate, i.e., upper chamber. On the other hand, the BMF-1, BMF-2, fBMF-1, and fBMF-2 provided by [Preparation example A] (2×10^4 cells/group) were evenly mixed with a 250 μL serum-free medium that is externally added with butylidenephthalide (BP) by a concentration of 0, 25, or 50 μg/mL. Then, the mixtures thus obtained were respectively added into the upper chambers. Thereafter, the whole transwell cell migration assay system was placed in an incubator to induce cell migration for 24 hours. […] Then, the polycarbonate membrane were fixed with 4% paraformaldehyde for 10 minutes and stained with 0.1% crystal violet. […] The cell numbers on the membrane were calculated into the relative cell migration ability (%) by using the results of BMFs not treated with butylidenephthalide (BP) as a basis.

[2] = test system: fibrotic buccal mucosal fibroblasts (fBMFs); test: Collagen gel contraction assay; conditions: fBMFs in collagen gel, BP 0, 25, or 50 μg/mL, 48 hours, with the increment in concentration, FIGS. 5A and 5B
Description: The BMF-1, BMF-2, fBMF-1, and fBMF-2 provided by [Preparation example A] were respectively dissolved in 0.5 mL of 2 mg/mL collagen solution (purchased from Sigma-Aldrich), and the mixtures thus obtained were moved into a 24-well plate. Then, the 24-well plate was placed in an incubator at […] and 5% CO2 for 2 hours to coagulate the collagen gels. The gels thus obtained were respectively called “BMFs group”, and “fBMFs group” gels. Thereafter, the coagulated gels were disengaged from the culture plate, and 0.5 mL of a medium containing different concentrations (0, 25, or 50 μg/mL) of butylidenephthalide (BP) was added thereinto to incubate with the gels for 48 hours. The contraction of gel in each group were observed and photographed. Finally, the relative gel area (%) of each “fBMFs group” was calculated by using the image-analyzed software, ImageJ (National Institutes of Health, USA) and using the results of “BMFs group” not being treated with butylidenephthalide (BP) as a basis.

[3] = test system: α-SMA gene; test: Q-PCR expression of myofibroblast marker gene α-SMA in fBMFs; conditions: fBMF-1 and fBMF-2, BP 0, 25, or 50 μg/mL, 48 hours, with the increment in concentration, FIG. 4
Source text: (§1) Two groups of buccal mucosal fibroblasts obtained from normal oral buccal mucosa (hereinafter abbreviated as “BMF-1” and “BMF-2”; or collectively called “BMFs”), and two groups of fibrotic buccal mucosal fibroblasts obtained from fibrotic oral buccal mucosa (hereinafter abbreviated as “fBMF-1” and “fBMF-2”; or collectively called “fBMFs”) were respectively subjected to the following procedures: seeding the cells into a 24-well plate by a concentration of 2×10^4 cells/well to cultivate the cells to reach a 80% confluence, and then respectively treating the cells with different concentrations (0, 12.5, 25, 50, 100, or 200 μg/mL) of butylidenephthalide (BP) for 48 hours. […]
(§2) It is known that during the process of the fibrosis of tissue, the tissue cells would differentiate and become myofibroblasts, wherein the α-SMA gene, Col1a1 gene, and S100A4 gene are the maker genes of myofibroblasts. Thus, in this experiment, a quantitative real-time polymerase chain reaction (Q-PCR) was conducted to investigate whether butylidenephthalide (BP) can inhibit the expressions of α-SMA gene, Col1a1 gene, and S100A4 gene in oral submucosal tissue cells. […]

[4] = test system: ZEB1 gene; test: Q-PCR expression of EMT marker gene ZEB1 in fBMFs; conditions: fBMF-1 and fBMF-2, BP 0, 25, or 50 μg/mL, 48 hours, with the increment in concentration, FIG. 2
Source text: as §1
(§3) It is known that during the process of epithelial-mesenchymal transition (EMT), the expressions of Twist gene, Snail gene, and ZEB1 gene in the cells will increase, and thus, these genes are known as the marker genes of EMT. In this experiment, quantitative real-time polymerase chain reaction (Q-PCR) was conducted to investigate whether butylidenephthalide (BP) can affect the expressions of Twist gene, Snail gene, and ZEB1 gene in oral submucosal tissue cells. […]

[5] = test system: Twist gene; test: Q-PCR expression of EMT marker gene Twist in fBMFs; conditions: fBMF-1 and fBMF-2, BP 0, 25, or 50 μg/mL, 48 hours, with the increment in concentration, FIG. 2
Source text: as §1, §3

[6] = test system: buccal mucosal fibroblasts (BMFs; BMF-1, BMF-2); test: MTT cytotoxicity evaluation, relative viability of buccal mucosal fibroblasts; conditions: BP at a concentration of no more than 50 μg/mL, 48 hours, FIG. 1
Source text: as §1

[7] = test system: Col1a1 gene; test: Q-PCR expression of myofibroblast marker gene Col1a1 in fBMFs; conditions: fBMF-1 and fBMF-2, BP 0, 25, or 50 μg/mL, 48 hours, with the increment in concentration, FIG. 4
Source text: as §1, §2

[8] = test system: Snail gene; test: Q-PCR expression of EMT marker gene Snail in fBMFs; conditions: fBMF-1 and fBMF-2, BP 0, 25, or 50 μg/mL, 48 hours, with the increment in concentration, FIG. 2
Source text: as §1, §3

[9] = test system: S100A4 gene; test: Q-PCR expression of myofibroblast marker gene S100A4 in fBMFs; conditions: fBMF-1 and fBMF-2, BP 0, 25, or 50 μg/mL, 48 hours, with the increment in concentration, FIG. 4
Source text: as §1, §2

[10] = test system: fibrotic buccal mucosal fibroblasts (fBMFs; fBMF-1, fBMF-2); test: MTT cytotoxicity evaluation, relative viability of fibrotic buccal mucosal fibroblasts; conditions: BP at a concentration of no more than 50 μg/mL, 48 hours, FIG. 1
Source text: as §1

CCCC=C1OC(=O)c2ccccc21 [butylidenephthalide]
cells which migrated from the upper chamber to the lower chamber (relative migration ability) [1]: decrease with the increment in the concentration
gel contraction (relative gel area) [2]: significantly mitigate
expression of α-SMA gene [3]: significantly decreased
expression of ZEB1 gene [4]: significantly decreased
expression of Twist gene [5]: significantly decreased
growth (relative viability) of BMFs [6]: will not be affected
expression of Col1a1 gene [7]: significantly decreased
expression of Snail gene [8]: significantly decreased
expression of S100A4 gene [9]: significantly decreased
growth (relative viability) of fBMFs [10]: will not be affected
